Converted amounts (≈) assume the structure as drawn.
Tests used:
Assay type in all cases: functional
Candida albicans = assay: Antimicrobial activity against Candida albicans PTCC 5027 after 24 hr by Alamar blue assay; conditions: PTCC 5027, 24 h
Aspergillus niger = assay: Antimicrobial activity against Aspergillus niger 5021 after 24 hr by Alamar blue assay; conditions: Aspergillus niger, 5021, 24 h
Bacillus subtilis = assay: Antimicrobial activity against Bacillus subtilis PTCC 1023 after 24 hr by Alamar blue assay; conditions: PTCC 1023, 24 h
Listeria monocytogenes = assay: Antimicrobial activity against Listeria monocytogenes PTCC 1165 after 24 hr by Alamar blue assay; conditions: PTCC 1165, 24 h
Staphylococcus aureus = assay: Antimicrobial activity against Staphylococcus aureus PTCC 1337 after 24 hr by Alamar blue assay; conditions: PTCC 1337, 24 h
Pseudomonas aeruginosa = assay: Antimicrobial activity against Pseudomonas aeruginosa PTCC 1074 after 24 hr by Alamar blue assay; conditions: PTCC 1074, 24 h
Salmonella enteritidis = assay: Antimicrobial activity against Salmonella enterica subsp. enterica serovar Enteritidis PTCC 1091 after 24 hr by Alamar blue assay; conditions: PTCC 1091, 24 h
Escherichia coli = assay: Antimicrobial activity against Escherichia coli PTCC 1338 after 24 hr by Alamar blue assay; conditions: PTCC 1338, 24 h

SMILES	MIC (Candida albicans)	MIC (Aspergillus niger)	MIC (Bacillus subtilis)	MIC (Listeria monocytogenes)	MIC (Staphylococcus aureus)	MIC (Pseudomonas aeruginosa)	MIC (Salmonella enteritidis)	MIC (Escherichia coli)
CSc1ncc(C2NC(=O)NC(C)=C2C(=O)Nc2cccnc2)n1Cc1ccccc1 (configuration not stated)	128 µg/mL (≈ 295 µM)	128 µg/mL (≈ 295 µM)	512 µg/mL (≈ 1180 µM)	> 512 µg/mL	512 µg/mL (≈ 1180 µM)	256 µg/mL (≈ 589 µM)	512 µg/mL (≈ 1180 µM)	256 µg/mL (≈ 589 µM)
CC1=C(C(=O)Nc2ccccn2)C(c2cccs2)NC(=O)N1 (configuration not stated)	> 512 µg/mL	> 512 µg/mL	> 512 µg/mL	512 µg/mL (≈ 1630 µM)	512 µg/mL (≈ 1630 µM)	512 µg/mL (≈ 1630 µM)	512 µg/mL (≈ 1630 µM)	> 512 µg/mL
CSc1ncc(C2NC(=O)NC(C)=C2C(=O)Nc2ccccc2Cl)n1Nc1ccccc1 (configuration not stated)	128 µg/mL (≈ 273 µM)	128 µg/mL (≈ 273 µM)	> 512 µg/mL	> 512 µg/mL	> 512 µg/mL	256 µg/mL (≈ 546 µM)	> 512 µg/mL	256 µg/mL (≈ 546 µM)
CSc1ncc(C2NC(=O)NC(C)=C2C(=O)Nc2cccc(Cl)c2)n1Cc1ccccc1 (configuration not stated)	256 µg/mL (≈ 547 µM)	128 µg/mL (≈ 274 µM)	256 µg/mL (≈ 547 µM)	> 512 µg/mL	128 µg/mL (≈ 274 µM)	256 µg/mL (≈ 547 µM)	256 µg/mL (≈ 547 µM)	> 512 µg/mL
CC1=C(C(=O)Nc2ccc(Cl)cc2)C(c2cccs2)NC(=O)N1 (configuration not stated)	> 512 µg/mL	> 512 µg/mL	512 µg/mL (≈ 1470 µM)	512 µg/mL (≈ 1470 µM)	256 µg/mL (≈ 736 µM)	512 µg/mL (≈ 1470 µM)	512 µg/mL (≈ 1470 µM)	> 512 µg/mL
CSc1ncc(C2NC(=O)NC(C)=C2C(=O)Nc2ccc(Cl)cc2)n1Nc1ccccc1 (configuration not stated)	32 µg/mL (≈ 68.2 µM)	64 µg/mL (≈ 136 µM)	> 512 µg/mL	> 512 µg/mL	> 512 µg/mL	> 512 µg/mL	512 µg/mL (≈ 1090 µM)	512 µg/mL (≈ 1090 µM)
CCCCOC(=O)C1=C(C)NC(=S)NC1c1cccs1 (configuration not stated)	> 512 µg/mL	> 512 µg/mL	512 µg/mL (≈ 1650 µM)	512 µg/mL (≈ 1650 µM)	512 µg/mL (≈ 1650 µM)	512 µg/mL (≈ 1650 µM)	> 512 µg/mL	256 µg/mL (≈ 825 µM)
CSc1ncc(C2NC(=O)NC(C)=C2C(=O)Nc2cccc(Cl)c2)n1Nc1ccccc1 (configuration not stated)	128 µg/mL (≈ 273 µM)	128 µg/mL (≈ 273 µM)	> 512 µg/mL	> 512 µg/mL	> 512 µg/mL	512 µg/mL (≈ 1090 µM)	> 512 µg/mL	> 512 µg/mL
COC(=O)C1=C(C)NC(=O)NC1c1cnc(SC)n1Cc1ccccc1 (configuration not stated)	256 µg/mL (≈ 687 µM)	256 µg/mL (≈ 687 µM)	512 µg/mL (≈ 1370 µM)	> 512 µg/mL	512 µg/mL (≈ 1370 µM)	512 µg/mL (≈ 1370 µM)	> 512 µg/mL	512 µg/mL (≈ 1370 µM)
CC1=C(C(=O)Nc2cccc(Cl)c2)C(c2cccs2)NC(=O)N1 (configuration not stated)	> 512 µg/mL	> 512 µg/mL	512 µg/mL (≈ 1470 µM)	256 µg/mL (≈ 736 µM)	512 µg/mL (≈ 1470 µM)	> 512 µg/mL	> 512 µg/mL	> 512 µg/mL
O=C(O)c1cn(C2CC2)c2cc(N3CCNCC3)c(F)cc2c1=O [CIPROFLOXACIN]	–	–	0.06 µg/mL (≈ 0.181 µM)	1 µg/mL (≈ 3.02 µM)	0.5 µg/mL (≈ 1.51 µM)	–	1 µg/mL (≈ 3.02 µM)	–
CSc1ncc(C2NC(=O)NC(C)=C2C(=O)Nc2ccc(Cl)cc2)n1Cc1ccccc1 (configuration not stated)	256 µg/mL (≈ 547 µM)	256 µg/mL (≈ 547 µM)	> 512 µg/mL	> 512 µg/mL	256 µg/mL (≈ 547 µM)	256 µg/mL (≈ 547 µM)	> 512 µg/mL	256 µg/mL (≈ 547 µM)
CSc1ncc(C2NC(=O)NC(C)=C2C(=O)Nc2ccccn2)n1Nc1ccccc1 (configuration not stated)	32 µg/mL (≈ 73.5 µM)	64 µg/mL (≈ 147 µM)	> 512 µg/mL	> 512 µg/mL	> 512 µg/mL	> 512 µg/mL	> 512 µg/mL	> 512 µg/mL
CSc1ncc(C2NC(=O)NC(C)=C2C(=O)Nc2ccccn2)n1Cc1ccccc1 (configuration not stated)	64 µg/mL (≈ 147 µM)	128 µg/mL (≈ 295 µM)	> 512 µg/mL	> 512 µg/mL	> 512 µg/mL	256 µg/mL (≈ 589 µM)	> 512 µg/mL	256 µg/mL (≈ 589 µM)
CSc1ncc(C2NC(=O)NC(C)=C2C(=O)Nc2ccccc2Cl)n1Cc1ccccc1 (configuration not stated)	256 µg/mL (≈ 547 µM)	256 µg/mL (≈ 547 µM)	> 512 µg/mL	> 512 µg/mL	> 512 µg/mL	512 µg/mL (≈ 1090 µM)	> 512 µg/mL	512 µg/mL (≈ 1090 µM)
CC1=C(C(=O)OCC(C)C)C(c2cccs2)NC(S)=N1 (configuration not stated)	> 512 µg/mL	> 512 µg/mL	> 512 µg/mL	512 µg/mL (≈ 1650 µM)	512 µg/mL (≈ 1650 µM)	> 512 µg/mL	> 512 µg/mL	512 µg/mL (≈ 1650 µM)
CC(=O)N1CCN(c2ccc(OCC3COC(Cn4ccnc4)(c4ccc(Cl)cc4Cl)O3)cc2)CC1 (configuration not stated) [KETOCONAZOLE]	2 µg/mL (≈ 3.76 µM)	4 µg/mL (≈ 7.53 µM)	–	–	–	–	–	–
CCOC(=O)C1=C(C)NC(=O)NC1c1cnc(SC)n1Nc1ccccc1 (configuration not stated)	64 µg/mL (≈ 165 µM)	128 µg/mL (≈ 330 µM)	> 512 µg/mL	> 512 µg/mL	> 512 µg/mL	128 µg/mL (≈ 330 µM)	512 µg/mL (≈ 1320 µM)	256 µg/mL (≈ 661 µM)
CCOC(=O)C1=C(C)NC(=O)NC1c1cnc(SC)n1Cc1ccccc1 (configuration not stated)	64 µg/mL (≈ 166 µM)	64 µg/mL (≈ 166 µM)	512 µg/mL (≈ 1320 µM)	512 µg/mL (≈ 1320 µM)	> 512 µg/mL	256 µg/mL (≈ 662 µM)	512 µg/mL (≈ 1320 µM)	256 µg/mL (≈ 662 µM)
CC1=C(C(=O)Nc2ccccc2Cl)C(c2cccs2)NC(=O)N1 (configuration not stated)	> 512 µg/mL	> 512 µg/mL	256 µg/mL (≈ 736 µM)	256 µg/mL (≈ 736 µM)	512 µg/mL (≈ 1470 µM)	> 512 µg/mL	> 512 µg/mL	> 512 µg/mL
CC1=C(C(=O)Nc2cccnc2)C(c2cccs2)NC(=O)N1 (configuration not stated)	> 512 µg/mL	> 512 µg/mL	> 512 µg/mL	512 µg/mL (≈ 1630 µM)	> 512 µg/mL	512 µg/mL (≈ 1630 µM)	512 µg/mL (≈ 1630 µM)	> 512 µg/mL
CC1=C(C(=O)OC(C)C)C(c2cccs2)NC(S)=N1 (configuration not stated)	> 512 µg/mL	> 512 µg/mL	> 512 µg/mL	> 512 µg/mL	> 512 µg/mL	> 512 µg/mL	> 512 µg/mL	> 512 µg/mL
COC(=O)C1=C(C)NC(=O)NC1c1cnc(SC)n1Nc1ccccc1 (configuration not stated)	128 µg/mL (≈ 343 µM)	128 µg/mL (≈ 343 µM)	> 512 µg/mL	> 512 µg/mL	> 512 µg/mL	256 µg/mL (≈ 686 µM)	512 µg/mL (≈ 1370 µM)	512 µg/mL (≈ 1370 µM)
CSc1ncc(C2NC(=O)NC(C)=C2C(=O)Nc2cccnc2)n1Nc1ccccc1 (configuration not stated)	32 µg/mL (≈ 73.5 µM)	64 µg/mL (≈ 147 µM)	> 512 µg/mL	> 512 µg/mL	> 512 µg/mL	512 µg/mL (≈ 1180 µM)	> 512 µg/mL	512 µg/mL (≈ 1180 µM)

Reference: ChEMBL document CHEMBL3045602, “Synthesis and antimicrobial activity of novel derivatives of Biginelli pyrimidines” (2012)
